Tested on: 843782-103-R-J1-PDC complex spheroid viability
Assay: Anticancer human tumor 843782-103-R-J1-PDC patient-derived lung adenocarcinoma cell line growth inhibition [RAS]
Settings: for IC50: curve of first compound; for viability, T/C: stronger effect = lower value
Method in brief: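 Agents were tested in combination matrices in half-log decrements from a top concentration at or near clinical Cmax (10 microM if undetermined). Targets were multi-cell spheroids of tumour lines plus HUVEC and MSC stromal cells.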

[1] = second compound 0.000949 µM, first compound 0.0316 µM
[2] = second compound 0.000949 µM, first compound 0.1 µM
[3] = second compound 0.000949 µM, first compound 0.316 µM
[4] = second compound 0.000949 µM, first compound 1 µM
[5] = second compound 0.003 µM, first compound 0.0316 µM
[6] = second compound 0.003 µM, first compound 0.1 µM
[7] = second compound 0.003 µM, first compound 0.316 µM
[8] = second compound 0.003 µM, first compound 1 µM
[9] = second compound 0.00949 µM, first compound 0.0316 µM
[10] = second compound 0.00949 µM, first compound 0.1 µM
[11] = second compound 0.00949 µM, first compound 0.316 µM
[12] = second compound 0.00949 µM, first compound 1 µM
[13] = second compound 0.03 µM, first compound 0.0316 µM
[14] = second compound 0.03 µM, first compound 0.1 µM
[15] = second compound 0.03 µM, first compound 0.316 µM
[16] = second compound 0.03 µM, first compound 1 µM
[17] = second compound 0.0949 µM, first compound 0.0316 µM
[18] = second compound 0.0949 µM, first compound 0.1 µM
[19] = second compound 0.0949 µM, first compound 0.316 µM
[20] = second compound 0.0949 µM, first compound 1 µM
[21] = second compound 0.3 µM, first compound 0.0316 µM
[22] = second compound 0.3 µM, first compound 0.1 µM
[23] = second compound 0.3 µM, first compound 0.316 µM
[24] = second compound 0.3 µM, first compound 1 µM
[25] = second compound 0.000949 µM, first compound 3.16 µM
[26] = second compound 0.000949 µM, first compound 10 µM
[27] = second compound 0.003 µM, first compound 3.16 µM
[28] = second compound 0.003 µM, first compound 10 µM
[29] = second compound 0.00949 µM, first compound 3.16 µM
[30] = second compound 0.00949 µM, first compound 10 µM
[31] = second compound 0.03 µM, first compound 3.16 µM
[32] = second compound 0.03 µM, first compound 10 µM
[33] = second compound 0.0949 µM, first compound 3.16 µM
[34] = second compound 0.0949 µM, first compound 10 µM
[35] = second compound 0.3 µM, first compound 3.16 µM
[36] = second compound 0.3 µM, first compound 10 µM
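Note: viability read after seven days of compound exposure.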

In the case of `CCN1CCN(Cc2ccc(Nc3ncc(F)c(-c4cc(F)c5nc(C)n(C(C)C)c5c4)n3)nc2)CC1` + CCn1c(-c2cc(N3CCN(C)CC3)cnc2C(C)OC)c2c3cc(ccc31)-c1csc(n1)CC(NC(=O)C1CC1C)C(=O)N1CCCC(N1)C(=O)OCC(C)(C)C2, the IC50 (second compound 0.000949 µM) is reported as 0.531 µM, the IC50 (second compound 0.003 µM) is reported as 0.122 µM and the IC50 (second compound 0.00949 µM) is reported as under 0.00316 µM. For the same compound, the IC50 (second compound 0.03 µM) was under 0.00316 µM, the IC50 (second compound 0.0949 µM) was under 0.00316 µM and the IC50 (second compound 0.3 µM) was under 0.00316 µM. For the same compound, the viability, T/C (second compound 0.000949 µM, first compound 0.00316 µM) was 79.5%, the viability, T/C (second compound 0.000949 µM, first compound 0.01 µM) was 83.1% and the viability, T/C [1] was 78.2%. The viability, T/C [2] was 73%, the viability, T/C [3] was 63.4% and the viability, T/C [4] was 34.5%. For the same compound, the viability, T/C (second compound 0.003 µM, first compound 0.00316 µM) was 64%, the viability, T/C (second compound 0.003 µM, first compound 0.01 µM) was 66.3% and the viability, T/C [5] was 57.1%. It also gave a viability, T/C [6] of 52.2%, a viability, T/C [7] of 41.8% and a viability, T/C [8] of 29.9%. The viability, T/C (second compound 0.00949 µM, first compound 0.00316 µM) was 45.9%, the viability, T/C (second compound 0.00949 µM, first compound 0.01 µM) was 42.9% and the viability, T/C [9] was 34.4%. For the same compound, the viability, T/C [10] was 31.1%, the viability, T/C [11] was 30.1% and the viability, T/C [12] was 20.8%. For the same compound, the viability, T/C (second compound 0.03 µM, first compound 0.00316 µM) was 24.5%, the viability, T/C (second compound 0.03 µM, first compound 0.01 µM) was 22.6% and the viability, T/C [13] was 21%. For the same compound, the viability, T/C [14] was 20%, the viability, T/C [15] was 18.2% and the viability, T/C [16] was 17%. It also gave a viability, T/C (second compound 0.0949 µM, first compound 0.00316 µM) of 17.9%, a viability, T/C (second compound 0.0949 µM, first compound 0.01 µM) of 16.1% and a viability, T/C [17] of 15.8%. The viability, T/C [18] was 15.2%, the viability, T/C [19] was 16.1% and the viability, T/C [20] was 14.2%. For the same compound, the viability, T/C (second compound 0.3 µM, first compound 0.00316 µM) was 17.1%, the viability, T/C (second compound 0.3 µM, first compound 0.01 µM) was 12.4% and the viability, T/C [21] was 14%. For the same compound, the viability, T/C [22] was 12.3%, the viability, T/C [23] was 13.9% and the viability, T/C [24] was 12.3%.

Compound `Cc1nc(N2CCC3(CC2)COC(C)C3N)c(CO)nc1Sc1ccnc(N)c1Cl` (stereo unspecified) + CCn1c(-c2cc(N3CCN(C)CC3)cnc2C(C)OC)c2c3cc(ccc31)-c1csc(n1)CC(NC(=O)C1CC1C)C(=O)N1CCCC(N1)C(=O)OCC(C)(C)C2 has an IC50 (second compound 0.000949 µM) of 0.0515 µM, an IC50 (second compound 0.003 µM) of 0.0318 µM and an IC50 (second compound 0.00949 µM) of under 0.0316 µM. For the same compound, the IC50 (second compound 0.03 µM) was under 0.0316 µM, the IC50 (second compound 0.0949 µM) was under 0.0316 µM and the IC50 (second compound 0.3 µM) was under 0.0316 µM. The viability, T/C [1] was 54.4%, the viability, T/C [2] was 42% and the viability, T/C [3] was 40.2%. It also gave a viability, T/C [4] of 23.5%, a viability, T/C [25] of 19.4% and a viability, T/C [26] of 19.2%. For the same compound, the viability, T/C [5] was 50%, the viability, T/C [6] was 39.2% and the viability, T/C [7] was 29.5%. For the same compound, the viability, T/C [8] was 22.1%, the viability, T/C [27] was 19.4% and the viability, T/C [28] was 13.4%. The viability, T/C [9] was 26.4%, the viability, T/C [10] was 25.6% and the viability, T/C [11] was 20%. It also gave a viability, T/C [12] of 19.6%, a viability, T/C [29] of 15.9% and a viability, T/C [30] of 15.1%. The viability, T/C [13] was 18.6%, the viability, T/C [14] was 17.8% and the viability, T/C [15] was 16.4%. It also gave a viability, T/C [16] of 15.5%, a viability, T/C [31] of 15.5% and a viability, T/C [32] of 14.1%. The viability, T/C [17] was 17.4%, the viability, T/C [18] was 13.6% and the viability, T/C [19] was 13.3%. For the same compound, the viability, T/C [20] was 13%, the viability, T/C [33] was 13.5% and the viability, T/C [34] was 12.2%. For the same compound, the viability, T/C [21] was 13.7%, the viability, T/C [22] was 15.5% and the viability, T/C [23] was 15.1%. For the same compound, the viability, T/C [24] was 15.4%, the viability, T/C [35] was 14% and the viability, T/C [36] was 12.4%.

For `NC1c2ccccc2OC12CCN(c1cnc3c(N4CCCc5ncccc54)n[nH]c3n1)CC2` (stereo unspecified) + CCn1c(-c2cc(N3CCN(C)CC3)cnc2C(C)OC)c2c3cc(ccc31)-c1csc(n1)CC(NC(=O)C1CC1C)C(=O)N1CCCC(N1)C(=O)OCC(C)(C)C2, the IC50 (second compound 0.000949 µM) was under 0.0316 µM, the IC50 (second compound 0.003 µM) was under 0.0316 µM and the IC50 (second compound 0.00949 µM) was under 0.0316 µM. For the same compound, the IC50 (second compound 0.03 µM) was under 0.0316 µM, the IC50 (second compound 0.0949 µM) was under 0.0316 µM and the IC50 (second compound 0.3 µM) was under 0.0316 µM. It also gave a viability, T/C [1] of 39.3%, a viability, T/C [2] of 25.7% and a viability, T/C [3] of 20%. It also gave a viability, T/C [4] of 19.5%, a viability, T/C [25] of 16.9% and a viability, T/C [26] of 12.2%. It also gave a viability, T/C [5] of 27.1%, a viability, T/C [6] of 19.2% and a viability, T/C [7] of 17.9%. It also gave a viability, T/C [8] of 16.2%, a viability, T/C [27] of 13.6% and a viability, T/C [28] of 10.3%. It also gave a viability, T/C [9] of 24.2%, a viability, T/C [10] of 15.6% and a viability, T/C [11] of 17%. The viability, T/C [12] was 15%, the viability, T/C [29] was 12.8% and the viability, T/C [30] was 8.86%. The viability, T/C [13] was 16.8%, the viability, T/C [14] was 14.8% and the viability, T/C [15] was 12.6%. The viability, T/C [16] was 12.7%, the viability, T/C [31] was 14.2% and the viability, T/C [32] was 9.33%. It also gave a viability, T/C [17] of 18.1%, a viability, T/C [18] of 14% and a viability, T/C [19] of 15.2%. For the same compound, the viability, T/C [20] was 13.8%, the viability, T/C [33] was 12.2% and the viability, T/C [34] was 9.38%. It also gave a viability, T/C [21] of 13.6%, a viability, T/C [22] of 13.6% and a viability, T/C [23] of 13.6%. For the same compound, the viability, T/C [24] was 12.8%, the viability, T/C [35] was 11.7% and the viability, T/C [36] was 7.8%.

Source: PubChem BioAssay AID2060883 (Molecular Pharmacology Branch, DTP, NCI, 2025)
